# Data from patent US20060058336A1, “Pharmaceutical composition for treatment of drug dependence” (priority 2003, published 2006).
# Assays:
# wild-type mice [1] = assay: Cocaine-induced hyperlocomotion on day 6 after establishment of cocaine dependence, wild-type mice; format: in vivo; details: cocaine 10 mg/kg i.p. daily 5 days, day 6 pretreatment 1 mg/kg 10 min before cocaine, FIG. 5c, P<0.001, P<0.01
# Procedure: Wild-type mice (9-13 weeks) received intraperitoneal injection of cocaine (10 mg/kg) once a day for 5 days. […] On day 6, the mice were pretreated with saline, donepezil (1 mg/kg) or galanthamine (1 mg/kg) 10 min before intraperitoneal injection of cocaine (10 mg/kg), and the cocaine-induced locomotor activity was measured for 10 min (n=5-12 for each group).
# IT-tg and IT-wt mice [2] = assay: Morphine CPP test in cholinergic cell-eliminated (IT-tg) and IT-wt mice with donepezil pretreatment; format: in vivo; details: donepezil hydrochloride 1 mg/kg i.p. 20 min before morphine 5 mg/kg, 3-day conditioning
# Procedure: (§1) Cholinergic cell-eliminated (IT-tg) mice wherein ACh-expressing cells (cholinergic cells) in the NAc were ablated were prepared and used in the experiment for examining the effects of reduction of ACh level in the NAc on sensitivity to an addictive drug (a drug dependence-producing drug). Selective ablation of cholinergic cells in the NAc was conducted through immunotoxin-mediated cell targeting (IMCT) techniques using transgenic mice and anti-Tac(Fv)-PE38 as the immunotoxin (Kobayashi et al., Proc. Natl Acad. Sci. USA 92, 1132-1136 (1995); Watanabe et al., Cell 95, 17-27 (1998)). […] Anti-Tac(Fv)-PE38 is an immunotoxin that can specifically recognize cells expressing hIL-2Rα and inhibits their protein synthesis, thereby eliminating the cells expressing hIL-2Rα. The present inventors have developed a method for selectively ablating cholinergic cells in the NAc; the method comprising administering anti-Tac(Fv)-PE38 locally to a transgenic mouse whose NAc specifically expressed hIL-2Rα in cholinergic cells. […] Both wild-type and transgenic mice were C57B6/J strain. […] The above-mentioned IT-treated transgenic mouse was used as cholinergic cell-eliminated mouse (IT-tg) in the Experiments and Examples hereinafter described.
# wild-type mice [3] = assay: Development of cocaine-induced locomotor sensitization in wild-type mice; details: donepezil 1 mg/kg 10 min before daily cocaine 10 mg/kg i.p., 10 min measurement, ANOVA P<0.001, FIG. 5b
# wild-type mice [4] = assay: Relapse of cocaine-induced hyperlocomotion after drug deprivation, wild-type mice; format: in vivo; details: cocaine 10 mg/kg 6 days, withheld days 7-11, day 12 donepezil 1 mg/kg 10 min before cocaine, P<0.001 vs saline, FIG. 5e
# Procedure: Drug-induced sensitization caused by continuous daily cocaine administration persists for a long term even after a prolonged period of abstinence from the drug. This is taken seriously as a mechanism of relapse, whereby a drug dependent individual resumes taking a drug after a long-term interruption. The effects of donepezil in blocking relapse of cocaine dependence were examined as follows: Wild-type mice (9-13 weeks) received intraperitoneal injection of cocaine (10 mg/kg) once a day for 6 days and cocaine dependence was established in mice. For 5 days, from day 7 to day 11, mice were withheld from cocaine and were kept in their home cage. On day 12, the mice were pretreated with saline or donepezil (1 mg/kg) 10 min before intraperitoneal injection with cocaine (10 mg/kg). The locomotor activity was then measured for 10 min (n=6 for each group).
# wild-type mice [5] = assay: Cocaine CPP test in wild-type mice; details: donepezil hydrochloride 1 or 3 mg/kg i.p. (both doses) 20 min before drug, cocaine 10 mg/kg daily, 3 days, P<0.01, FIG. 5a
# IT-wt and IT-tg mice = assay: Cocaine-induced hyperlocomotion on day 6 in IT-wt and IT-tg mice; format: in vivo; details: cocaine 10 mg/kg daily 5 days, day 6 donepezil 1 mg/kg 10 min before cocaine
# Procedure: Cholinergic cell-eliminated (IT-tg) mice wherein ACh-expressing cells (cholinergic cells) in the NAc were ablated were prepared and used in the experiment for examining the effects of reduction of ACh level in the NAc on sensitivity to an addictive drug (a drug dependence-producing drug). Selective ablation of cholinergic cells in the NAc was conducted through immunotoxin-mediated cell targeting (IMCT) techniques using transgenic mice and anti-Tac(Fv)-PE38 as the immunotoxin (Kobayashi et al., Proc. Natl Acad. Sci. USA 92, 1132-1136 (1995); Watanabe et al., Cell 95, 17-27 (1998)). Anti-Tac (Fv)-PE38 is a recombinant fusion protein composed of a variable region of a monoclonal antibody against human interleukin 2 receptor α subunit (hIL-2Rα) and Pseudomonas exotoxin, and can be purified from E. coli BL21 as described by Chaudhary et al. (Nature 339, 394-397 (1989)). Anti-Tac(Fv)-PE38 is an immunotoxin that can specifically recognize cells expressing hIL-2Rα and inhibits their protein synthesis, thereby eliminating the cells expressing hIL-2Rα. […]
# The present investigation was conducted to examine whether ACh derived from the NAc cholinergic cells is responsible for cocaine-induced hyperlocomotion. […] Their cocaine-induced locomotion was then measured for 10 min (n=7-11 for each group). […]
# wild-type mice [6] = assay: Morphine conditioned place preference (CPP) test in wild-type mice; details: donepezil hydrochloride 1 or 3 mg/kg i.p. (both doses) 20 min before morphine 5 mg/kg, 3-day conditioning, P<0.01, FIG. 4a
# IT-tg and IT-wt mice [7] = assay: CPP test of sensitivity to addictive drugs in IT-tg and IT-wt mice
# IT-tg and IT-wt mice [8] = assay: Conditioned place aversion (CPA) test, naloxone-precipitated morphine withdrawal; details: naloxone 1 mg/kg after morphine 50 mg/kg
# IT-tg and IT-wt mice [9] = assay: Morphine withdrawal symptom (jumping) induced by naloxone; details: naloxone 1 mg/kg 1 hr after morphine 50 mg/kg
# IT-tg mice = assay: Cocaine CPP test in IT-tg mice with ACh receptor agonist pretreatment; format: in vivo; details: methyl atropine 2 mg/kg pretreatment, pilocarpine 100 mg/kg 20 min before cocaine 5 mg/kg, 3 days, P<0.01 vs saline, FIG. 6
# Procedure: as §1
structure (smiles),measurement,setting,value
COc1cc2c(cc1OC)C(=O)C(CC1CCN(Cc3ccccc3)CC1)C2 (stereo not drawn) [donepezil],cocaine-induced hyperlocomotion on day 6,wild-type mice [1],significantly effective in inhibiting
same,morphine-induced CPP in IT-tg mice,"IT-tg and IT-wt mice [2]; IT-tg mice, FIG. 4b",failed to suppress
same,morphine-induced CPP in IT-wt mice,"IT-tg and IT-wt mice [2]; IT-wt mice, P<0.01, FIG. 4b",significantly reduced
same,increase in locomotor activity by repeated cocaine administration (locomotor sensitization),wild-type mice [3],no such increase was observed
same,abnormal hyperlocomotion after cocaine re-administration on day 12 (relapse),wild-type mice [4],no abnormal hyperlocomotion was observed
same,degree of cocaine-induced CPP,wild-type mice [5],significantly reduced
same,effects on cocaine-induced locomotion in IT-tg group,"IT-wt and IT-tg mice; IT-tg mice, FIG. 5d",not observed
same,cocaine-induced abnormal behaviors (locomotor sensitization) in IT-wt group,"IT-wt and IT-tg mice; IT-wt mice, P<0.05, FIG. 5d",significantly decreased
same,development of morphine-induced CPP,wild-type mice [6],significantly reduced
COc1ccc2c3c1O[C@H]1C[C@@H](O)C=C[C@@]31CCN(C)C2 [galanthamine],cocaine-induced hyperlocomotion on day 6,wild-type mice [1],significantly effective in inhibiting
CN1CC[C@]23c4c5ccc(O)c4O[C@H]2[C@@H](O)C=C[C@H]3[C@H]1C5 [morphine],"place preference for morphine-paired chamber, IT-tg mice, 1 mg/kg","IT-tg and IT-wt mice [7]; IT-tg mice, 3-day conditioning with 1 mg/kg morphine i.p., P<0.05, FIG. 2a",significant preference
same,"place preference for morphine-paired chamber, IT-wt mice, 1 mg/kg","IT-tg and IT-wt mice [7]; IT-wt mice, 3-day conditioning with 1 mg/kg morphine i.p., FIG. 2a",no such preference was observed
same,"place preference for morphine-paired chamber, 5 mg/kg","IT-tg and IT-wt mice [7]; both IT-tg and IT-wt mice, conditioning with 5 mg/kg morphine",exhibited place preference
C=CCN1CC[C@]23c4c5ccc(O)c4O[C@H]2C(=O)CC[C@@]3(O)[C@H]1C5 [naloxone],place aversion to naloxone-paired chamber,"IT-tg and IT-wt mice [8]; both IT-tg and IT-wt morphine-dependent mice, FIG. 2b",exhibited place aversion
same,"place aversion to naloxone-paired chamber, IT-tg vs IT-wt mice","IT-tg and IT-wt mice [8]; morphine-dependent mice, P<0.05, FIG. 2b",stronger place aversion
same,jumping (physical morphine withdrawal symptom),"IT-tg and IT-wt mice [9]; IT-tg and IT-wt morphine-dependent mice, counted over 20 min",observed in both
same,"number of jumps, IT-tg vs IT-wt mice","IT-tg and IT-wt mice [9]; morphine-dependent mice, 20 min, P<0.05, FIG. 3",significantly more number of jumps
CC[C@@H]1C(=O)OC[C@@H]1Cc1cncn1C [pilocarpine],development of cocaine-induced CPP in IT-tg mice,IT-tg mice,significantly reduced
